This is an account of results in patent US12215112B2, “CD151 inhibitors” (ESFAM BIOTECH PTY LTD, priority 2020, dated 2025).

This experiment concerns PC3 cells. As to the kind of experiment: xCELLigence RTCA real-time cell invasion assay (CIM plate, Matrigel) on PC3 prostate cancer cells. It is filed as cell-based. Particulars: Homo sapiens, PC-3, compound 25 uM to 1 uM, cell index monitored for 72 hours, four-parameter dose-response curve, read-out: IC50, Effect of compounds on the invention on prostate cancer cells. Summed up:
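PC3 invasion through 5% Matrigel-coated CIM-plate upper chambers was tracked as impedance cell index over 72 h. Compound at 25–1 µM was present in both chambers, with 3×10^4 cells seeded in serum-free RPMI. IC50 came from a four-parameter fit, and IC90 was derived from IC50 and the Hill slope.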
Take `COc1cccc(NC(=O)c2nn3c(-c4cn[nH]c4)cc(N4Cc5ccc(F)cc5C4)nc3c2C(C)C)c1F` [Compound 122, N-(2-fluoro-3-methoxyphenyl)-5-(5-fluoroisoindolin-2-yl)-3-isopropyl-7-(1H-pyrazol-4-yl)pyrazolo[1,5-a]pyrimidine-2-carboxamide]: the IC50 (usually the concentration that gives 50% inhibition) worked out at 9.07 µM.
The value for `CC(C)c1c(C(=O)Nc2ccc(OC3CCOCC3)cc2)nn2c(-c3cn[nH]c3)cc(N3Cc4ccc(F)cc4C3)nc12` [Compound 123, 5-(5-fluoroisoindolin-2-yl)-3-isopropyl-7-(1H-pyrazol-4-yl)-N-(4-((tetrahydro-2H-pyran-4-yl)oxy)phenyl)pyrazolo[1,5-a]pyrimidine-2-carboxamide] was 1.02 µM; that for `COc1ccc(F)c(NC(=O)c2nn3c(-c4cn[nH]c4)cc(N4Cc5ccc(F)cc5C4)nc3c2C(C)C)c1` [Compound 124, N-(2-fluoro-5-methoxyphenyl)-5-(5-fluoroisoindolin-2-yl)-3-isopropyl-7-(1H-pyrazol-4-yl)pyrazolo[1,5-a]pyrimidine-2-carboxamide] was 1.15 µM.
Consider `COc1cccc(NC(=O)c2nn3c(-c4cn[nH]c4)cc(N4Cc5cccc(F)c5C4)nc3c2C(C)C)c1` [Compound 125, 5-(4-fluoroisoindolin-2-yl)-3-isopropyl-N-(3-methoxyphenyl)-7-(1H-pyrazol-4-yl)pyrazolo[1,5-a]pyrimidine-2-carboxamide], for which the IC50 is 7.62 µM.
In the case of `COc1cccc(NC(=O)c2nn3c(-c4cn[nH]c4)cc(N4Cc5cccc(Cl)c5C4)nc3c2C(C)C)c1` [Compound 126, 5-(4-chloroisoindolin-2-yl)-3-isopropyl-N-(3-methoxyphenyl)-7-(1H-pyrazol-4-yl)pyrazolo[1,5-a]pyrimidine-2-carboxamide], the IC50 worked out at 1.21 µM.
